In article PMC7785020, “A unique hormonal recognition feature of the human glucagon-like peptide-2 receptor” (Cell Research, 2020):
Residue numbers refer to the chain shown, from its start.

How the values were obtained:
[1] = molecular target: T1, GLP-2R K414^7.35A (Homo sapiens, UniProt O95838, K414A); test: cAMP accumulation, K414^7.35A; type: cell-based; design: GLP-2R (1-553) (WT); expressed in transfected cells; host or cells: HEK 293T; conditions: Table S3, K414A; HEK 293T, 30 min, RT; mean ± SEM, n ≥ 3 in duplicate; read-out: cAMP Emax (% WT)
T1 sequence (O95838 1-553 K414A): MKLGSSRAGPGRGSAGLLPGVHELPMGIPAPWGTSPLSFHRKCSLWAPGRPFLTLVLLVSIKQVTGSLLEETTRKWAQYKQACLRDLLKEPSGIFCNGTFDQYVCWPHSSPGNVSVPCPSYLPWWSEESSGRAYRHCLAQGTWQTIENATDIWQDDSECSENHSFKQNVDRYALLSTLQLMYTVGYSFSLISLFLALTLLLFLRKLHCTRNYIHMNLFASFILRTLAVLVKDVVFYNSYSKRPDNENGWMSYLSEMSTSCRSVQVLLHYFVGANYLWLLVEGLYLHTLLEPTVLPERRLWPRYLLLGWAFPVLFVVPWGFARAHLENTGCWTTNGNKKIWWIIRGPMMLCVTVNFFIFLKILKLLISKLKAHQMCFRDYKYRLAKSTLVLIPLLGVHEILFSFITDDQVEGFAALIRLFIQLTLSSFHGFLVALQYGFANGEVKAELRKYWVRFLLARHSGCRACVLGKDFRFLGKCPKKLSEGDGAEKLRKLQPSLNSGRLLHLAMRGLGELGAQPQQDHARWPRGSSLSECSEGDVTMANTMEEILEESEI
Experimental: (§1) HEK 293T cells were cultured in Dulbecco’s Modified Eagle’s Medium (DMEM) (Gibco, Waltham, USA) supplemented with 10% (v/v) fetal bovine serum (FBS) (Gibco) and 1% (v/v) sodium pyruvate (Gibco) at 37 °C, 5% CO2 in a humidified incubator. They were seeded onto 6-well cell culture plates and transiently transfected with different GLP-2R constructs using Lipofectamine 2000 transfection reagent (Invitrogen, Carlsbad, CA, USA). After 24 h, the transfected cells were seeded onto 384-well microtiter plates (3000 cells per well) in HBSS supplemented with 5 mM HEPES, 0.1% (w/v) bovine serum albumin (BSA) and 0.5 mM 3-isobutyl-1- methylxanthine, and stimulated with increasing concentrations of GLP-2 for 30 min at RT. Eu and Ulight were diluted by cAMP detection buffer and added to the plates separately to terminate the reaction. Plates were incubated at RT for 60 min before measuring the fluorescence intensity at 620 nm and […] by an EnVision multilabel plate reader (PerkinElmer, Boston, USA).

[2] = molecular target: T2, GLP-2R R344^5.40A (Homo sapiens, UniProt O95838, R344A); test: cAMP accumulation, R344^5.40A; type: cell-based; conditions: Table S3, R344A; HEK 293T, 30 min, RT; mean ± SEM, n ≥ 3 in duplicate; read-out: cAMP Emax (% WT)
T2 sequence (O95838 1-553 R344A): T1 sequence (O95838 1-553 K414A) with R344A, A414K
Experimental: as §1

[3] = tested on: dipeptidyl peptidase 4; conditions: cited from earlier work
Source text: GLP-2R belongs to class B GPCR subfamily, which is mainly expressed in the gut, pancreas and brain.[1] […] GLP-2 is encoded by the proglucagon gene and becomes active after post-translational processing by prohormone convertases. As a gastrointestinal hormone, it mainly regulates intestinal epithelial cell growth and functions that are crucial for digestion and absorption of nutrients.[2]

CC[C@H](C)[C@H](NC(=O)[C@H](Cc1ccccc1)NC(=O)[C@H](CC(=O)O)NC(=O)[C@H](CCCNC(=N)N)NC(=O)[C@H](C)NC(=O)[C@H](C)NC(=O)[C@H](CC(C)C)NC(=O)[C@H](CC(N)=O)NC(=O)[C@H](CC(=O)O)NC(=O)[C@H](CC(C)C)NC(=O)[C@@H](NC(=O)[C@@H](NC(=O)[C@H](CC(N)=O)NC(=O)[C@H](CCSC)NC(=O)[C@H](CCC(=O)O)NC(=O)[C@H](CC(=O)O)NC(=O)[C@H](CO)NC(=O)[C@H](Cc1ccccc1)NC(=O)[C@H](CO)NC(=O)CNC(=O)[C@H](CC(=O)O)NC(=O)[C@H](C)NC(=O)[C@@H](N)Cc1c[nH]cn1)[C@@H](C)O)[C@@H](C)CC)C(=O)N[C@@H](CC(N)=O)C(=O)N[C@@H](Cc1c[nH]c2ccccc12)C(=O)N[C@@H](CC(C)C)C(=O)N[C@H](C(=O)N[C@@H](CCC(N)=O)C(=O)N[C@H](C(=O)N[C@@H](CCCCN)C(=O)N[C@H](C(=O)N[C@H](C(=O)N[C@@H](CC(=O)O)C(=O)O)[C@@H](C)O)[C@@H](C)CC)[C@@H](C)O)[C@@H](C)CC [Human GLP-2 (1–33)]
Emax [1]: 110 ± 3.3% | Emax [2]: 109 ± 2.8% | inactivation by dipeptidyl peptidase 4 in vivo (in words) [3]: rapidly inactivated by dipeptidyl peptidase 4 in vivo
